Measured values: patent publication EP1992228A1, “Insecticidal substituted thiourea derivatives” (Bayer CropScience AG, priority 2007, dated 2008)

What was measured:
Boophilus microplus = experiment: Boophilus microplus-test (injektion); assay type: in vivo; settings: application rate of 20 µg/animal; injected in the abdomen
Method: Boophilus microplus-test (injektion)
(§1) To produce a suitable preparation of active compound, 1 part by weight of active compound is mixed with the stated amount of solvent and emulsifier, and the concentrate is diluted with emulsifier-containing water to the desired concentration.
The solution of the active compound is injected in the abdomen (Boophilus microplus); the animals are transferred into a cup and stayed in a rooming with an air condition.
After the specified period of time, the efficiany mortality in % is determined. 100 % means that no tick has lay fertile eggs.

Myzus persicae = experiment: Myzus persicae-test (MYZUPE, spray application); assay type: in vivo; settings: spray on Chinese cabbage leaf-disks, green peach aphid, all instars; for mortality at 100 g/ha: application rate of 100 g/ha; for mortality at 500 g/ha: application rate of 500 g/ha
Method: Myzus persicae-test (MYZUPE, spray application) [table] [table] To produce a suitable preparation of active compound, 1 part by weight of active compound is mixed with the stated amount of solvent and emulsifier, and the concentrate is diluted with emulsifier-containing water to the desired concentration. Chinese cabbage (Brassica pekinensis) leaf-disks infected with all instars of the green peach aphid (Myzus persicae), are sprayed with a preparation of the active ingredient at the desired concentration. After the specified period of time, mortality in % is determined. 100 % means that all aphids have been killed; 0 % means that none of the […] have been killed.

Tetranychus urticae = experiment: Tetranychus-test, OP-resistant (TETRUR, spray application); assay type: in vivo; settings: application rate of 100 g/ha, spray on French bean, two spotted spidermite, all stages
Method: Tetranychus-test, OP-resistant (TETRUR, spray application)
as §1
French bean (Phaseolus vulgaris) which are heavily infested with all stages of the two spotted spidermite (Tetranychus urticae), are sprayed with a preparation of the active ingredient at the desired concentration.
After the specified period of time, mortality in % is determined. 100 % means that all spider mites have been killed; 0 % means that none of the […] have been killed.

[1] = logP (HCOOH) determination; assay type: physicochemical
Meloidogyne incognita = experiment: Meloidogyne-test, OP resistant (MELGIN spray application); assay type: in vivo; settings: application rate of 20 ppm, sand with egg/larval suspension and lettuce seeds, read-out: activity (nematicidal efficacy in % with reference to gall formation)
Method: Meloidogyne-test, OP resistant (MELGIN spray application)
as §1
Containers are filled with sand, active compound solution, Meloidogyne incognita egg/larval suspension and lettuce seeds. The lettuce seeds germinate and the plantlets develop. The galls develop on the roots.
After the desired time, the nematicidal efficacy is determined in % with reference to gall formation. 100 % means that no galls were found; 0 % means that the number of galls on the treated plants corresponds to that of the untreated control.

| SMILES | efficiency (100 % means that no tick has lay fertile eggs) (Boophilus microplus) [%] | mortality at 500 g/ha (Myzus persicae) [%] | further results |
| --- | --- | --- | --- |
| CC(NC(=S)NCCO)c1cccc(F)c1 (centres unmarked) [compound 3] | ≥ 80 |  | mortality at 100 g/ha (Myzus persicae): ≥ 80% |
| C[C@H](NC(=S)NCCO)c1ccccc1 [compound 5] |  | ≥ 80 |  |
| C[C@H](NC(=S)NCCO)c1ccc(F)cc1 [compound 8] |  | ≥ 80 |  |
| CC[C@H](NC(=S)NCCO)c1ccccc1 [compound 13] |  | ≥ 80 |  |
| C[C@H](NC(=S)NCCO)c1ccccc1F [compound 6] | ≥ 80 |  | mortality at 100 g/ha (Tetranychus urticae): ≥ 80%; mortality at 100 g/ha (Myzus persicae): ≥ 80% |
| C[C@H](NC(=S)NCCO)c1ccccc1F [EXAMPLE 2] |  |  | chromatographic logP [1]: 1.5 |
| C[C@H](NC(=S)NCCO)c1ccc(Cl)cc1 [Compound No. 158] | ≥ 80 | ≥ 80 | mortality at 100 g/ha (Tetranychus urticae): ≥ 80%; inhibition at 20 ppm (Meloidogyne incognita): ≥ 80% |
| C[C@H](NC(=S)NCCO)c1ccc(F)cc1 [EXAMPLE 1] |  |  | chromatographic logP [1]: 1.52 |
